Measured values: ChEMBL document CHEMBL5108004, “An auristatin-based peptide-drug conjugate targeting Kita-Kyushu lung cancer antigen 1 for precision chemoradiotherapy in gastric cancer” (Eur J Med Chem, 2022)
Calls of active or inactive are those of the source. The rule behind the calls is not given here. *1 amine or outer side, *2 acyl side, *3 side chain or, on linkers, in order; H or OH if unused. Where a SMILES comes first, the peptide text is derived from it. Bridges are numbered along the chain shown (N, C = ends). Roman numbers before positions name the chains, in order. [ ]: non-standard residue; d: D form. The star is where a group is joined. Hexanoyl(6-succinimido-3yl) = O=C1CC([*:1])C(=O)N1CCCCCC(=O)[*:2]; Dolaproine = CO[C@@H]([C@@H]1CCCN1)[C@@H](C)C(=O)O; Dil = CC[C@H](C)[C@H](NC)[C@@H](CC(=O)O)OC; PABC = O=C(OCc1ccc(N[*:1])cc1)[*:2]; X1 = C[C@@H](N*)[C@@H](O)c1ccccc1; Cit = NC(=O)NCCC[C@H](N)C(=O)O; NMeV = CN[C@H](C(=O)O)C(C)C

Columns and labels:
[1] = Toxicity in male BALB/c nude mouse xenografted with KK-LC-1-positive human MKN-45 cells assessed as body weight loss at 3 mg/kg, iv administered twice a week for 3 weeks; format: organism-based; conditions: in vivo, 504 h
[2] = Toxicity in male BALB/c nude mouse xenografted with KK-LC-1-positive human MKN-45 cells assessed as mouse death at 3 mg/kg, iv administered twice a week for 3 weeks; format: organism-based; conditions: in vivo, 504 h
[3] = Toxicity in male BALB/c nude mouse xenografted with KK-LC-1-positive human MKN-45 cells assessed as body weight loss at 0.3 mg/kg, iv administered twice a week for 3 weeks; format: organism-based; conditions: in vivo, 504 h
[4] = Toxicity in male BALB/c nude mouse xenografted with KK-LC-1-positive human MKN-45 cells assessed as body weight loss at 1 mg/kg, iv administered twice a week for 3 weeks; format: organism-based; conditions: in vivo, 504 h
[5] = Toxicity in male BALB/c nude mouse xenografted with KK-LC-1-positive human MKN-45 cells assessed as body weight loss at 2 mg/kg, iv administered twice a week for 3 weeks; format: organism-based; conditions: in vivo, 504 h
[6] = Toxicity in male BALB/c nude mouse xenografted with KK-LC-1-positive human MKN-45 cells assessed as effect on liver function at 0.3 mg/kg, iv administered twice a week for 3 weeks; format: organism-based; conditions: in vivo, 504 h
[7] = Toxicity in male BALB/c nude mouse xenografted with KK-LC-1-positive human MKN-45 cells assessed as effect on liver function at 1 mg/kg, iv administered twice a week for 3 weeks; format: organism-based; conditions: in vivo, 504 h
[8] = Toxicity in male BALB/c nude mouse xenografted with KK-LC-1-positive human MKN-45 cells assessed as effect on liver function at 2 mg/kg, iv administered twice a week for 3 weeks; format: organism-based; conditions: in vivo, 504 h
[9] = Toxicity in male BALB/c nude mouse xenografted with KK-LC-1-positive human MKN-45 cells assessed as effect on kidney function at 0.3 mg/kg, iv administered twice a week for 3 weeks; format: organism-based; conditions: in vivo, 504 h
[10] = Toxicity in male BALB/c nude mouse xenografted with KK-LC-1-positive human MKN-45 cells assessed as effect on kidney function at 1 mg/kg, iv administered twice a week for 3 weeks; format: organism-based; conditions: in vivo, 504 h
[11] = Toxicity in male BALB/c nude mouse xenografted with KK-LC-1-positive human MKN-45 cells assessed as effect on kidney function at 2 mg/kg, iv administered twice a week for 3 weeks; format: organism-based; conditions: in vivo, 504 h
[12] = Toxicity in male BALB/c nude mouse xenografted with KK-LC-1-positive human MKN-45 cells administered intravenously twice a week for 3 weeks; conditions: in vivo, route iv
MKN-45 [13] = assay: Antitumor activity against KK-LC-1-positive human MKN-45 cells xenografted in male BALB/c nude mouse assessed as induction of tumor regression at 0.3 mg/kg, iv administered twice a week for 3 weeks; format: functional, organism-based
MKN-45 [14] = assay: Antitumor activity against KK-LC-1-positive human MKN-45 cells xenografted in male BALB/c nude mouse assessed as induction of tumor regression at 1 mg/kg, iv administered twice a week for 3 weeks; format: functional, organism-based
MKN-45 [15] = assay: Antitumor activity against KK-LC-1-positive human MKN-45 cells xenografted in male BALB/c nude mouse assessed as induction of tumor regression at 2 mg/kg, iv administered twice a week for 3 weeks; format: functional, organism-based
MKN-45 [16] = assay: Antitumor activity against KK-LC-1-positive human MKN-45 cells xenografted in male BALB/c nude mouse assessed as reduction in tumor growth at 0.3 mg/kg, iv administered twice a week for 3 weeks; format: functional, organism-based
MKN-45 [17] = assay: Antitumor activity against KK-LC-1-positive human MKN-45 cells xenografted in male BALB/c nude mouse assessed as reduction in tumor volume at 0.3 mg/kg, iv administered twice a week for 3 weeks; format: functional; design: scale not given: the % may be the effect or the level left
MKN-45 [18] = assay: Antitumor activity against KK-LC-1-positive human MKN-45 cells xenografted in male BALB/c nude mouse assessed as tumor volume at 0.3 mg/kg, iv administered twice a week for 3 weeks; format: functional
[19] = Toxicity in male BALB/c nude mouse xenografted with KK-LC-1-positive human MKN-45 cells assessed as increase in survival of mouse at 0.3 mg/kg, iv administered twice a week for 3 weeks; format: organism-based; conditions: in vivo, 504 h
NUGC-4 [20] = assay: Antitumor activity against KK-LC-1-positive human NUGC-4 cells xenografted in male BALB/c nude mouse assessed as reduction in tumor burden at 0.3 mg/kg, iv administered once a week for 3 weeks followed by exposure to 2 Gy gamma irradiation for 2 consecutive days once a week for 3 weeks; format: functional, organism-based
[21] = Toxicity in male BALB/c nude mouse xenografted with KK-LC-1-positive human NUGC-4 cells assessed as effect on body weight at 0.3 mg/kg, iv administered once a week for 3 weeks followed by exposure to 2 Gy gamma irradiation for 2 consecutive days once a week for 3 weeks; format: organism-based; conditions: in vivo, 504 h
[22] = Toxicity in male BALB/c nude mouse xenografted with KK-LC-1-positive human NUGC-4 cells assessed as mouse survival at 0.3 mg/kg, iv administered once a week for 3 weeks followed by exposure to 2 Gy gamma irradiation for 2 consecutive days once a week for 3 weeks measured after 47 days; format: organism-based; conditions: in vivo
[23] = Toxicity in male BALB/c nude mouse xenografted with KK-LC-1-positive human NUGC-4 cells assessed as median survival time at 0.3 mg/kg, iv administered once a week for 3 weeks; format: organism-based; conditions: in vivo, 504 h
[24] = Toxicity in male BALB/c nude mouse xenografted with KK-LC-1-positive human NUGC-4 cells assessed as median survival time at 0.3 mg/kg, iv administered once a week for 3 weeks followed by exposure to 2 Gy gamma irradiation for 2 consecutive days once a week for 3 weeks measured after 47 days; format: organism-based; conditions: in vivo, 504 h
NUGC-4 [25] = assay: Antitumor activity against KK-LC-1-positive human NUGC-4 cells xenografted in male BALB/c nude mouse assessed as decrease in Ki67 at 0.3 mg/kg, iv administered once a week for 3 weeks followed by exposure to 2 Gy gamma irradiation for 2 consecutive days once a week for 3 weeks measured by immunohistochemical staining analysis; format: functional, organism-based

SMILES: CC[C@H](C)[C@@H]([C@@H](CC(=O)N1CCC[C@H]1[C@H](OC)[C@@H](C)C(=O)N[C@H](C)[C@@H](O)c1ccccc1)OC)N(C)C(=O)[C@@H](NC(=O)[C@@H](NC(=O)[C@H](C(C)C)N(C)C(=O)OCc1ccc(NC(=O)[C@H](CCCNC(N)=O)NC(=O)[C@@H](NC(=O)CCCCCN2C(=O)CC(SC[C@H](N)C(=O)N[C@H]3CSSC[C@@H](C(=O)O)NC(=O)[C@H]([C@@H](C)O)NC(=O)[C@H]([C@@H](C)O)NC(=O)[C@H](CC(C)C)NC(=O)[C@H](C)NC(=O)[C@H]([C@@H](C)O)NC(=O)[C@H](CC(N)=O)NC(=O)[C@H](CCCCN)NC3=O)C2=O)C(C)C)cc1)C(C)C)C(C)C (stereo not given in full) (I: H-CCKNTALTTC-OH / II: V[Cit][PABC][NMeV]VV[Dil][Dolaproine]-X1; linker I:1-II:N via Hexanoyl(6-succinimido-3yl); disulfide I:2-I:10)
- Activity [1]: Toxic
- Activity [2]: Toxic
- Activity [3]: Non-Toxic
- Activity [4]: Non-Toxic
- Activity [5]: Non-Toxic
- Activity [6]: Non-Toxic
- Activity [7]: Non-Toxic
- Activity [8]: Non-Toxic
- Activity [9]: Non-Toxic
- Activity [10]: Non-Toxic
- Activity [11]: Non-Toxic
- MTD at 504 h [12]: 2 mg/kg
- Activity (MKN-45 [13]): Active
- Activity (MKN-45 [14]): Active
- Activity (MKN-45 [15]): Active
- Activity (MKN-45 [16]): Active
- Activity (MKN-45 [17]): 48.5%
- Activity (MKN-45 [18]): 292.1 mm3
- Activity [19]: Non-Toxic
- Activity (NUGC-4 [20]): Active
- Activity [21]: Non-Toxic
- survival at 504 h [22]: 83.3%
- MST [23]: 40 days
- MST [24]: 58 days
- Activity (NUGC-4 [25]): Active
